Assay results as given in article PMC6222422, “Synthesis and Biological Evaluation of Novel Indole-Derived Thioureas” (Molecules : A Journal of Synthetic Chemistry and Natural …, 2018).
Like-named read-outs stand apart in the source and are kept apart here.

Key:
in vitro [1] = settings: cattle (Bos taurus)
HIV-1 [2] = experiment: microbe, parasite or virus in culture; settings: Human immunodeficiency virus 1, MT4, read-out: HIV-1 EC50
HSV-1 = experiment: microbe, parasite or virus in culture; type: cell-based, human herpes 1; settings: Human alphaherpesvirus 1, Vero 76, read-out: HSV-1 EC50
VV = experiment: microbe, parasite or virus in culture; type: cell-based; settings: Orthopoxvirus vaccinia, Vero 76, read-out: VV EC50
RSV = experiment: microbe, parasite or virus in culture; type: cell-based, human respiratory syncytial virus; settings: human respiratory syncytial virus, Vero 76, read-out: RSV EC50
Sb-1 = experiment: microbe, parasite or virus in culture; type: cell-based, poliovirus type-1; settings: Enterovirus C, Vero 76, read-out: Sb-1 EC50
in vitro [3] = settings: African green monkey (Cercopithecus aethiops)
CV-B5 = experiment: microbe, parasite or virus in culture; type: cell-based, coxsackievirus B5; settings: Enterovirus B, CVB5, Vero 76, read-out: CV-B5 EC50
BVDV = experiment: microbe, parasite or virus in culture; type: cell-based, bovine viral diarrhoea virus; settings: for EC50: Bovine viral diarrhea virus isolates and strains, MDBK, in Bos taurus, read-out: BVDV EC50
in vitro [4] = settings: human
VSV = experiment: microbe, parasite or virus in culture; type: cell-based; settings: Vesicular stomatitis virus, Vero 76, read-out: VSV EC50
in vitro [5] = settings: Syrian hamster (Mesocricetus auratus)
YFV = experiment: microbe, parasite or virus in culture; type: cell-based; settings: Yellow fever virus, BHK, read-out: YFV EC50
BHK cells [6] = settings: Syrian hamster (Mesocricetus auratus)
Reo-1 = experiment: microbe, parasite or virus in culture; type: cell-based, reovirus type-1; settings: for EC50: Reovirus sp., BHK, read-out: Reo-1 EC50
[7] = tested on: HIV-1 EFV^R (K103R + V179D + P225H mutant); experiment: microbe, parasite or virus in culture; type: cell-based, Human Immunodeficiency Virus type-1; settings: read-out: EC50 EFV^R
[8] = tested on: HIV-1 N119 (Y181C mutant); experiment: microbe, parasite or virus in culture; type: cell-based, Human Immunodeficiency Virus type-1; settings: read-out: EC50 N119
[9] = tested on: HIV-1 MDR strain (74V, 41L, 106A, 215Y); experiment: microbe, parasite or virus in culture; type: cell-based, Human Immunodeficiency Virus type-1; settings: read-out: EC50 MDR
[10] = tested on: HIV-1 A17 (K103N + Y181C mutant); experiment: microbe, parasite or virus in culture; type: cell-based, Human Immunodeficiency Virus type-1; settings: read-out: EC50 A17
[11] = tested on: HIV-1 AZT^R strain (67N, 70R, 215F, 219Q); experiment: microbe, parasite or virus in culture; type: cell-based, Human Immunodeficiency Virus type-1; settings: read-out: EC50 AZT^R
HIV-1 [12] = settings: read-out: EC50 HIV-1
CCRF-SB = experiment: Cytotoxicity against leukaemia/lymphoma cell lines, MTT; settings: Homo sapiens, 96 h, read-out: CC50 CCRF-SB
WIL-2NS = experiment: as above; settings: Homo sapiens, WIL2-NS, 96 h, read-out: CC50 WIL-2NS
CCRF-CEM = experiment: as above; settings: Homo sapiens, 96 h, read-out: CC50 CCRF-CEM
Cytotoxicity, MTT method [13] = settings: African green monkey (Cercopithecus aethiops)
BHK cells [14] = experiment: Cytotoxicity, MTT method; settings: read-out: BHK CC50; reduce the proliferation of mock-infected BHK cells by 50% (Table 6)
Cytotoxicity, MTT method [15] = settings: Syrian hamster (Mesocricetus auratus)
Cytotoxicity, MTT method [16] = settings: cattle (Bos taurus)
Cytotoxicity, MTT method [17] = settings: human
[18] = tested on: cell lines derived from human haematological tumours; experiment: Cytotoxicity against cell lines derived from human haematological tumours, MTT; type: cell-based; settings: CCRF-CEM, WIL-2NS, CCRF-SB, read-out: CC50 range over cell lines derived from human haematological tumours
Experimental: Cell lines derived from human haematological tumours [CD4+ human acute T-lymphoblastic leukaemia (CCRF-CEM), human splenic B-lymphoblastoid cells (WIL-2NS), human acute B-lymphoblastic leukaemia (CCRF-SB)] were seeded at an initial density of 1 × 10^5 cells/mL in 96 well plates in RPMI-1640 medium supplemented with 10% foetal calf serum (FCS), 100 units/mL penicillin G and 100 μg/mL streptomycin. Cell viability was determined after 96 h at 37 °C by the MTT method. All cell cultures were then incubated at 37 °C in a humidified, 5% CO2 atmosphere, in the absence or presence of serial dilutions of test compounds in culture medium. Before dilutions, compounds were dissolved in DMSO at 100 mM.

Compound | CC50 (in vitro [1]) | EC50 (HIV-1 [2]) | EC50 (HSV-1) | EC50 (VV) | EC50 (RSV) | EC50 (Sb-1) | CC50 (in vitro [3]) | EC50 (CV-B5) | EC50 (BVDV) | CC50 (in vitro [4]) | EC50 (VSV) | CC50 (in vitro [5]) | EC50 (YFV) | EC50 (Reo-1) | also measured
CCOC(=O)NC(=S)NCCc1c[nH]c2ccccc12 [Compound 20, 1-(2-(1H-Indol-3-yl)ethyl)-3-ethoxycarbonylthiourea] | > 100 µM | > 100 µM | > 100 µM | > 100 µM | > 100 µM | > 100 µM | > 100 µM | > 100 µM | 35 ± 2.8 µM | > 100 µM | > 100 µM | > 100 µM | > 100 µM | > 100 µM | cytotoxicity for MDBK cell lines (in words) (MDBK cells): lack of cytotoxicity; activity against BVDV (in words) (BVDV): showed activity; CC50 (BHK cells [6]): > 100 µM
Cc1cn([C@H]2C[C@H](N=[N+]=[N-])[C@@H](CO)O2)c(=O)[nH]c1=O [AZT] |  |  |  |  |  |  |  |  |  |  |  |  |  |  | CC50 (MT-4 cells): 45 µM; EC50 [7]: 0.02 ± 0.001 µM; EC50 [8]: 0.025 ± 0.004 µM; EC50 [9]: 0.08 ± 0.006 µM; EC50 [10]: 0.01 ± 0.001 µM; EC50 [11]: 0.35 ± 0.04 µM; EC50 (HIV-1 [12]): 0.022 ± 0.004 µM
COc1cccc2c1C(=O)c1c(O)c3c(c(O)c1C2=O)C[C@@](O)(C(=O)CO)C[C@@H]3O[C@H]1C[C@H](N)[C@H](O)[C@H](C)O1 [Doxorubicin, reference compound] |  |  |  |  |  |  |  |  |  |  |  |  |  |  | CC50 (CCRF-SB): 0.03 ± 0.003 µM; CC50 (WIL-2NS): 0.02 ± 0.003 µM; CC50 (CCRF-CEM): 0.02 ± 0.002 µM
CNC(=S)NCCc1c[nH]c2ccccc12 [Compound 25, 1-(2-(1H-Indol-3-yl)ethyl)-3-methylthiourea] |  | > 100 µM | > 100 µM | > 100 µM | > 100 µM | > 100 µM |  | > 100 µM | > 100 µM |  | > 100 µM |  | > 100 µM | > 100 µM | CC50 (Cytotoxicity, MTT method [13]): > 100 µM; CC50 (BHK cells [14]): > 100 µM; CC50 (Cytotoxicity, MTT method [15]): > 100 µM; CC50 (Cytotoxicity, MTT method [16]): > 100 µM; CC50 (Cytotoxicity, MTT method [17]): > 100 µM
S=C(NCCc1c[nH]c2ccccc12)Nc1ccc(I)cc1 [Compound 21, 1-(2-(1H-Indol-3-yl)ethyl)-3-(4-iodophenyl)thiourea] | > 100 µM | > 2.4 µM | > 11 µM | > 11 µM | > 11 µM | > 11 µM | 11 µM | > 11 µM | > 100 µM | 2.4 ± 0.2 µM | > 11 µM | 11 µM | > 11 µM | > 11 µM | melting point: 162 to 165 °C; CC50 (CCRF-SB): 12 ± 1.6 µM; CC50 [18]: 5 to 12 µM; CC50 (WIL-2NS): 5.8 ± 1 µM; CC50 (CCRF-CEM): 5 ± 0.8 µM
CCNC(=S)NCCc1c[nH]c2ccccc12 [Compound 22, 1-(2-(1H-Indol-3-yl)ethyl)-3-ethylthiourea] |  | > 100 µM | > 100 µM | > 100 µM | > 100 µM | > 100 µM |  | > 100 µM | > 100 µM |  | > 100 µM |  | > 100 µM | > 100 µM | CC50 (Cytotoxicity, MTT method [13]): > 100 µM; CC50 (BHK cells [14]): > 100 µM; CC50 (Cytotoxicity, MTT method [15]): > 100 µM; CC50 (Cytotoxicity, MTT method [16]): > 100 µM; CC50 (Cytotoxicity, MTT method [17]): > 100 µM
C=CCNC(=S)NCCc1c[nH]c2ccccc12 [Compound 18, 1-(2-(1H-Indol-3-yl)ethyl)-3-allylthiourea] | > 100 µM | > 100 µM | > 100 µM | > 100 µM | > 100 µM | > 100 µM | > 100 µM | > 100 µM | > 100 µM | > 100 µM | > 100 µM | > 100 µM | > 100 µM | 61 µM | CC50 (BHK cells [6]): > 100 µM; activity against Reo-1 (in words) (Reo-1): not particularly significant
